Where two headings read alike, the source gives them in different places.

The target of data set [1] is GABAAR. As to conditions: 3H-flunitrazepam, rat brain extract; for IC50: read-out: GABAAR binding IC50.
The nature of data set [2]: in vitro. The note with it: PAMPA, pH 7.4.
The test system of data set [3] is female A/J mice. As to the kind of experiment: Methacholine-induced airway hyperresponsiveness, double chamber plethysmograph. It counts as in vivo, mouse. The note with it: nebulized 7.2 mg/kg, then five nebulized methacholine challenges, vs vehicle.
Data set [4] relates to guinea pig airway smooth muscle. Kind of data set: Ex vivo airway smooth muscle relaxation, substance P-contracted tracheal rings. The note with it: 25 μM, vs vehicle.
Data set [5] has as its system GABAAR. As to conditions: read-out: GABAAR binding IC50; reported earlier; cited from earlier work.
Data set [6] is described as follows: Metabolic stability phase 2. In kind it is in vitro ADME. As to conditions: human liver S9, UDP-glucuronic acid, 10 μM compound.
For data set [7], the system named is female Swiss Webster mice. As to conditions: oral dosing up to 1000 mg/kg; cited from earlier work.
For data set [8] the following is noted: cited from earlier work.
Data set [9] in a line: Microsomal stability phase 1. The note with it: human liver S9, NADPH, 10 μM compound. In kind it is in vitro ADME.
A short description of data set [10]: Metabolic stability phase 2. In kind it is in vitro ADME. As to conditions: mouse liver S9, UDP-glucuronic acid, 10 μM compound.
Data set [11] can be described thus: Microsomal stability phase 1. It counts as in vitro ADME. The note with it: mouse liver S9, NADPH, 10 μM compound.
The subject of data set [12] is female Swiss Webster mice. Kind of data set: Rotarod sensorimotor inhibition. As to conditions: diazepam 8 mg/kg. In kind it is in vivo, mouse.

As for `CC1(C)N=C(c2ccccc2F)c2cc(Br)ccc2NC1=O` [3a, 7-Bromo-5-(2-fluorophenyl)-3,3-dimethyl-1,3-dihydro-2H-benzo[e][1,4]diazepin-2-one], the IC50 in data set [1] was found to be 1250 nM.

Regarding `O=C1Nc2ccc(Br)cc2C(c2ccccc2F)=NC12CC2` [3c], the IC50 in data set [1] is 42 nM.

`O=C1Nc2ccc(Br)cc2C(c2ccccc2F)=NC12CCC2` [3d]: the IC50 in [1] is 2040 nM. Also, in data set [2], the Papp is 3.16 ×10⁻⁶ cm/s.

As for `O=C1Nc2ccc(Br)cc2C(c2ccccc2F)=NC12CCCC2` [3e], in data set [1], the “GABAAR binding (in words)” value is on record as “no significant binding”. This compound also gave a Papp in [2] of 0.158 ×10⁻⁶ cm/s.

Turning to `O=C1Nc2ccc(Br)cc2C(c2ccccc2F)=NC12CCCCC2` [3f], the “GABAAR binding (in words)” value in [1] is “no significant binding”. For the same compound, the Papp in data set [2] is 0.0794 ×10⁻⁶ cm/s.

For the compound `O=C1Nc2ccc(Cl)cc2C(c2ccccc2F)=NC12CC2` [3g], the IC50 in [1] was determined as 665 nM.

Consider `CCOC(=O)c1ncn2c1C(C)(C)N=C(c1ccccc1F)c1cc(Br)ccc1-2` [4a], for which, in [1], the “GABAAR binding (in words)” value is “Some activity was retained” and the half-maximal inhibitory concentration (IC50) was found to be 733 nM.

As to `CCOC(=O)c1ncn2c1C1(CC1)N=C(c1ccccc1F)c1cc(Br)ccc1-2` [4c, Ethyl 8-bromo-6-(2-fluorophenyl)spiro[benzo[f]imidazo[1,5-α][1,4]diazepine-4,1′-cyclopropane]-3-carboxylate], in [1], the IC50 was determined as 87 nM.

As to `CCOC(=O)c1ncn2c1C1(CCC1)N=C(c1ccccc1F)c1cc(Br)ccc1-2` [4d], in data set [1], the “GABAAR binding (in words)” value was “Some activity was retained” and the half-inhibitory concentration (IC50) was determined as 859 nM. The Papp in data set [2] was 6.31 ×10⁻⁶ cm/s.

As to `CCOC(=O)c1ncn2c1C1(CCCC1)N=C(c1ccccc1F)c1cc(Br)ccc1-2` [4e], the “GABAAR binding (in words)” value in data set [1] is on record as “not active”. This compound gave a Papp in data set [2] of 1.58 ×10⁻⁶ cm/s.

Take `CCOC(=O)c1ncn2c1C1(CCCCC1)N=C(c1ccccc1F)c1cc(Br)ccc1-2` [4f]: in [1], the “GABAAR binding (in words)” value was “not active” and the IC50 was determined as 6220 nM. The Papp in data set [2] was 1 ×10⁻⁶ cm/s.

In the case of `CCOC(=O)c1ncn2c1C1(CC1)N=C(c1ccccc1F)c1cc(Cl)ccc1-2` [4g], the “GABAAR binding (in words)” value in data set [1] is reported as “weak GABAAR ligands”. Besides, the Papp in data set [2] was 2.51 ×10⁻⁶ cm/s.

In data set [2], `CCOC(=O)c1ncn2c1C1(CC1)N=C(c1ccccc1F)c1cc(C3CC3)ccc1-2` [4i, Ethyl 8-Cyclopropyl-6-(2-fluorophenyl)spiro-[benzo[f]imidazo[1,5-α][1,4]diazepine-4,1′-cyclopropane]-3-carboxylate] had an apparent permeability coefficient (Papp) of 12.6 ×10⁻⁶ cm/s.

Consider `CC1(C)N=C(c2ccccc2F)c2cc(Br)ccc2-n2cnc(C(=O)O)c21` [5a], for which the “effect on specific airway resistance (sRaw)” value in data set [3] is “little to no change of sRaw values”. In data set [1], the “GABAAR binding (in words)” value is on record as “did not show strong GABAAR binding” and the IC50 is 4050 nM.

With `O=C(O)c1ncn2c1C1(CC1)N=C(c1ccccc1F)c1cc(Br)ccc1-2` [5c, 8-Bromo-6-(2-fluorophenyl)-spiro[benzo[f]imidazo[1,5-α][1,4]diazepine-4,1′-cyclopropane]-3-carboxylic Acid], the “relaxation of constricted airway smooth muscle” value (shortened to “relaxation”) in data set [4] (at 30 min) is “significant relaxation”. Also, in data set [1], the IC50 worked out at 9 nM.

Take `O=C(O)c1ncn2c1C1(CCC1)N=C(c1ccccc1F)c1cc(Br)ccc1-2` [5d]: the “relaxation” value in data set [4] (at 60 min) is “weak airway smooth muscle relaxation”. For the same compound, the 50% inhibitory concentration (IC50) in data set [1] amounted to 1830 nM.

With `O=C(O)c1ncn2c1C1(CCCCC1)N=C(c1ccccc1F)c1cc(Br)ccc1-2` [5f], in data set [4] (at 30 min), the “relaxation” value is “significant relaxation”.

Regarding `O=C(O)c1ncn2c1C1(CC1)N=C(c1ccccc1F)c1cc(Cl)ccc1-2` [5g], the “GABAAR binding (in words)” value in data set [1] is on record as “weak GABAAR ligands”.

Take `C#Cc1ccc2c(c1)C(c1ccccc1F)=NC1(CC1)c1c(C(=O)O)ncn1-2` [5h, 8-Ethynyl-6-(2-fluorophenyl)spiro[benzo[f]-imidazo[1,5-α][1,4]diazepine-4,1′-cyclopropane]-3-carboxylic Acid]: the “relaxation” value in data set [4] (at 30 min) is “significant relaxation”. Moreover, the IC50 in data set [1] turned out to be 59 nM.

Regarding `O=C(O)c1ncn2c1C1(CC1)N=C(c1ccccc1F)c1cc(C3CC3)ccc1-2` [5i], in data set [1], the “GABAAR binding (in words)” value was “weak GABAAR ligands” and the IC50 stood at 1830 nM.

Turning to `O=C(O)c1ncn2c1C1(CC1)N=C(c1ccccc1F)c1ccccc1-2` [5j, 6-(2-Fluorophenyl)spiro[benzo[f]imidazo[1,5-α][1,4]diazepine-4,1′-cyclopropane]-3-carboxylic Acid], the “relaxation” value in [4] (at 30 min) is listed as “significant relaxation”. Moreover, the IC50 in [1] was 289 nM.

As for `C[C@@H]1N=C(c2ccccc2F)c2cc(Br)ccc2-n2cnc(C(=O)O)c21` [MIDD0301S], the IC50 in [5] is 25 nM.

Take `C[C@H]1N=C(c2ccccc2F)c2cc(Br)ccc2-n2cnc(C(=O)O)c21` [MIDD0301]: the “remaining percentage of parent compound after 2 h, phase 2” value in data set [6] is on record as 77 ± 3%; in data set [10] it was 73 ± 8%. Also, in data set [7], the “sensorimotor inhibition on rotarod” value is reported as “absence of sensorimotor inhibition”. Also, the “aqueous solubility (in words)” value in [8] (pH values between 3 and 6) was “significantly decreased”; in data set [8] (strong acidic, neutral and basic conditions), “excellent solubility”. Besides, the “remaining percentage of parent compound after 2 h, phase 1” value in [9] was determined as 98 ± 4%; in data set [11], 110 ± 14%. The IC50 in data set [5] is 26 nM.

As for `CN1C(=O)CN=C(c2ccccc2)c2cc(Cl)ccc21` [diazepam], the “sensorimotor inhibition on rotarod” value in [12] was “rapid and significant loss of sensorimotor coordination”.

(Values after PMC10833105 (Journal of medicinal chemistry, 2023).)
